Measured values: US20250179465A1, “SITE-SPECIFIC ENCODING OF FLUORINATED PHENYLALANINE RESIDUES IN BACTERIAL AND MAMMALIAN CELLS” (University of Iowa Research Foundation, priority 2022, published 2025)

Tests used:
PheX-B5 [1] = target: T1, PheX-B5 (Methanosarcina barkeri, UniProt Q6WRH6, C313A/N311G); assay: ESI-MS encoding fidelity of sfGFP_N150TAG expressed in HEK 293T cells with PheX-B5; format: cell-based, human; design: Phex-B5 HEK; expressed in transfected cells; host or cells: HEK 293T; conditions: for fidelity (encoding): PheX-B5, HEK 293T cells, sfGFP_N150TAG, 2 mM ncAA, ESI-MS, estimated
Description: (§1) HEK 293T cells were expanded in […]. […] Overall, 7-40 dishes were transfected with master mixes such that each dish received 3.5 μg of pACBAC1, 1.5 μg sfGFP_N150TAG, and 15 μL of PolyJET according to manufacturer's instructions. Media was changed before transfection and approximately 18 hrs after transfection. Cells were harvested approximately 36 hours after transfection. To harvest, each dish was washed twice with DPBS. Cells were harvested via scraping in ice-cold DPBS plus Roche protease inhibitors, on ice, pelleted by centrifugation, and flash frozen in liquid nitrogen. Cells were lysed in hypotonic lysis buffer (10 mM Tris/HCl pH 8, Roche protease inhibitors, 0.1% Triton X 100 Sigma) via dounce homogenization on ice. Cell debris and nuclei were cleared via centrifugation. Clarified lysate was diluted 1:2 in Wash buffer (25 mM Tris/HCl pH 8, 20 mM Imidazole, 150 mM NaCl) and applied to pre-equilibrated Ni-NTA resin (Qiagen). Column was washed in at least 30 volumes of wash buffer, then protein was eluted in elution buffer (25 mM Tris/HCl pH 8, 250 mM Imidazole, 150 mM NaCl). Elution was exchanged into 100 mM TEAB, prepared via 1:10 dilution of 1 M Stock (thermofisher) in ultrapure water. Finally, protein was concentrated to ˜0.5 mg/ml, flash frozen, and submitted to Novatia Inc for ESI mass spec of the intact protein. […] The spectra was analyzed in-house by Novatia (Promass software) to yield relative intensities of the dominant mass and any other apparent peaks. […] To be conservative, all other peaks were considered unexpected mass, even though they may not represent actual misincorporation.
Target sequence in this assay (Q6WRH6 other isoform, or with tags, fused parts or gaps N311G/C313A): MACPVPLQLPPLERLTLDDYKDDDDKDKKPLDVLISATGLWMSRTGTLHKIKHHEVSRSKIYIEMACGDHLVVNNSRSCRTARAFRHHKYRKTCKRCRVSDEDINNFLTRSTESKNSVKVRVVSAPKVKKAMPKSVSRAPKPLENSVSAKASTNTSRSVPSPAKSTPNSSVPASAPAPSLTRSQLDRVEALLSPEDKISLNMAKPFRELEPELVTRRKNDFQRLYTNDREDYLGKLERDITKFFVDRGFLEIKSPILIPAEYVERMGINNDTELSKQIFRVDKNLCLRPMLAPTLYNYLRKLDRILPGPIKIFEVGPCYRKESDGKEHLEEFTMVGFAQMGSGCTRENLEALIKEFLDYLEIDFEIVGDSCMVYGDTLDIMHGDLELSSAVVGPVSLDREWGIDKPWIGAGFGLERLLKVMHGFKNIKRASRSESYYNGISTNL

PheX-D6 [2] = target: T2, PheX-D6 (Methanosarcina barkeri, UniProt Q6WRH6, C313M/N311A/V366G/W382T); assay: ESI-MS encoding fidelity of sfGFP_N150TAG expressed in HEK 293T cells with PheX-D6; format: cell-based, human; design: Phex-D6 HEK; expressed in transfected cells; host or cells: HEK 293T; conditions: PheX-D6, HEK 293T cells, 2 mM ncAA, estimated
Description: as §1
Target sequence in this assay (Q6WRH6 other isoform, or with tags, fused parts or gaps N311A/C313M/V366G/W382T): as the sequence (Q6WRH6 other isoform, or with tags, fused parts or gaps N311G/C313A) above, with G336A, A338M, V391G, W407T counted along it

sfGFP-N150TAG = assay: Permissivity screen (E. coli), sfGFP-N150TAG rescue fluorescence; format: cell-based; conditions: result in words; for encoding level in E. coli by the synthetases tested: 1 mM ncAA, 24 hours
Description: Electrocompetent DH10B cells containing the pALS reporter plasmid were transformed with isolated pBK plasmids containing the synthetases. Cultures of 5 mL were inoculated with single colonies of each synthetase in non-inducing media with 50 μg/mL kanamycin and 25 μg/mL tetracycline and grown for 16 hours. Noncanonical amino acid stocks were made at 100× their final concentration. 96-well blocks were prepared with 500 μL of auto-induction media containing antibiotics, and ncAAs with a final working concentration of 1 mM were added to their respective wells. Each well was then inoculated with a corresponding synthetase, yielding a final 96-well block where each synthetase was tested against each amino acid of interest. Cultures were grown in duplicate and fluorescence measurements were taken at 24 hours.

PheX-D6 [3] = target: T2, PheX-D6; assay: ESI-MS encoding fidelity of sfGFP_N150TAG expressed in E. coli with PheX-D6; format: cell-based; design: Phex-D6 ECOLI; expressed in transfected cells; host or cells: E. coli; conditions: sfGFP N150TAG, 1 mM ncAA, intact protein ESI-MS
Description: (§2) Previously existing E. coli containing sfGFP150TAG and a given Rs in non-inducing media were used to inoculate 5 mL cultures of non-inducing media containing 50 μg/mL Kan and 25 μg/mL Tet. Cultures were incubated for 20 hours at 37° C., shaking at 250 rpm. After adequate growth, 500 μL of the 5 mL cultures were used to inoculate 50 mL cultures of auto-inducing media containing 1 mM ncAA. Cultures were incubated for 24 hours (37° C., 250 rpm), after which cultures were then spun down at 5000 rcf for 10 minutes and resuspended in 10 mL of a Tris buffer solution containing 100 mM Tris, 0.5 M NaCl, and 5 mM imidazole. Cells were lysed by micro-fluidization at 18,000 psi and centrifuged at […] for 30 minutes. sfGFP proteins in cell lysate were bound to TALON Metal Affinity Resin (bed volume of 100 μL) at 4° C. for 1 hour. Lysate and bound resin were transferred to a gravity-flow column and the resin was washed with 30 bed volumes of buffer. Protein was eluted using Tris buffer solution previously described supplemented with 200 mM imidazole. Protein concentration was assessed by comparing sfGFP fluorescence to a standard curve and submitted for ESI-MS.
(§3) The spectra were analyzed in-house by Novatia (Promass) to yield relative intensities at given masses. […] For the purpose of estimating encoding fidelity, these were considered part of the expected mass, and all other signals were considered non-expected mass.
Target sequence in this assay (Q6WRH6 whole entry N311A/C313M/V366G/W382T): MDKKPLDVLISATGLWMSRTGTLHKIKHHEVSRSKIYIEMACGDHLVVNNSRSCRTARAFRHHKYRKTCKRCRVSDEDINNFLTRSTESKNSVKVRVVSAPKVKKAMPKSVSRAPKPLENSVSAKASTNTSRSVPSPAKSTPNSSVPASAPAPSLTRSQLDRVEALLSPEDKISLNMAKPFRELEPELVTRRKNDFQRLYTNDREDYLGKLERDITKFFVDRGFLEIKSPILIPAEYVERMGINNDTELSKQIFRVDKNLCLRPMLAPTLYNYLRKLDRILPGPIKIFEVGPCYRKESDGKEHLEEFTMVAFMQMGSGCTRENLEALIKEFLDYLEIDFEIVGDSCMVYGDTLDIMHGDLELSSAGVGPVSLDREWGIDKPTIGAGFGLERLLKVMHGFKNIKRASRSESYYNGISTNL

PheX-B5 [4] = target: T1, PheX-B5; format: cell-based; design: Phex-B5 ECOLI; expressed in transfected cells; host or cells: E. coli; conditions: PheX-B5, E. coli, sfGFP N150TAG, 1 mM ncAA, intact protein ESI-MS
Description: as §2, §3
Target sequence in this assay (Q6WRH6 whole entry N311G/C313A): as the sequence (Q6WRH6 whole entry N311A/C313M/V366G/W382T) above, with A311G, M313A, G366V, T382W counted along it

F1486TAG-hNav 1.5 = assay: Western blot of full-length F1486TAG-hNav 1.5 expression via PheX-D6; format: cell-based, human; conditions: F1486TAG hNav 1.5 with PheX-D6, HEK 293T, 2 mM ncAA, result in words
Description: (§4) pCMV-CFTR was a gift from Paul McCray (University of Iowa). WT CFTR-TAA (the existing TAG stop codon changed to TAA), F508 TAG CFTR (TAG amber codon introduced at F508 in the above WT construct), as well as WT and F1486TAG hNav 1.5_strep_HIS_strep were produced using standard methods and sequenced through the open reading frame. For expression of WT CFTR, 10 cm dishes of HEK 293T cells were transfected with 1.5 μg WT CFTR-TAA and 0.25 μg WT GFP. For expression of WT hNav 1.5, 10 cm dishes of HEK 293T cells were transfected with 1.5 μg of WT hNav 1.5_strep_HIS_strep and 0.25 μg WT GFP. For encoding of 2,3,6F Phe, 10 cm dishes of HEK 293T cells were transfected from master mixes of DNA such that each dish received 3.5 μg of PheX-D6 and 0.25 μg of sfSFGFP_N150TAG. Depending on condition, 2 μg of F508TAG-CFTR or 1.5 μg of F1486TAG-Nav 1.5-SHS were added. Media was changed twice (˜16 hr and ˜32 hr post transfection), and cells were harvested ˜44 hrs post transfection and flash frozen in aliquots. Cell pellets were resuspended in RIPA (Sigma Aldrich) plus Roche protease inhibitors. 60 μg of protein from cleared, unconcentrated lysate (or a dilution) was loaded on 4-20% SDS gels. […]

F508TAG-CFTR = assay: Western blot of full-length F508TAG-CFTR expression via PheX-D6; format: cell-based, human; conditions: F508TAG CFTR with PheX-D6, HEK 293T, 2 mM ncAA, result in words
Description: as §4

sfGFP_N150TAG = assay: Permissivity screen (mammalian), lysate GFP fluorescence; format: cell-based, human; conditions: HEKT cells, PheX-D6, result in words
Description: HEKT cells were seeded in 60 mm dishes so that they would be approximately 60-80% confluent the next day. We transfected the cells using 1.75 μg of the PacBac1-based synthetase plasmid (PheX-D6 or PheX-B5) and 0.75 μg of sfGFP_N150TAG per dish. Polyjet was used (7.5 μl per dish, 2.5 mL media volume). Media was exchanged to contain ncAAs at a given concentration before transfection and approximately 16 hours after transfection. Amino acids were solubilized either in NaOH for those synthesized as free acids (penta-flouro, 2,3,6 trifluoro, 3,4,5 trifluoro, 2,5 difluoro, 2,4 difluoro, 2 mono) or in HCl for those synthesized as HCl salts (2,3,5,6 tetrafluoro, 2,3,4,5 tetrafluoro, 2,6 difluoro). Cells were imaged and harvested approximately 24 hrs after transfection. Images were taken with 20× objective using a Leica DFC9000GT camera with 700 ms exposure, without binning. Excitation was through an X-Cite 120 LED (Lumen Dynamics) set to 100% intensity. For bright field images, light was adjusted manually. […] After cell debris and nuclei were cleared via centrifugation, GFP fluorescence was read from supernatants in 96 well plates; for each concentration of amino acid, at least 6 readings were made from at least 2 transfections. The level of fluorescence from lysates from untransfected cells averaged 21.7±2.1 RFU. […]

## N[C@@H](Cc1cc(F)c(F)c(F)c1F)C(=O)O [2,3,4,5-fluoro phenylalanine, 2,3,4,5 tetra-fluoro Phenylalanine]
PheX-B5 [1]
  fidelity (encoding): 97.4%
PheX-D6 [2]
  fidelity (encoding): 100%

## N[C@@H](Cc1c(F)c(F)cc(F)c1F)C(=O)O [2,3,5,6-fluoro Phe, 2,3,5,6 tetra-fluoro Phenylalanine]
PheX-B5 [1]
  fidelity (encoding): 100%
sfGFP-N150TAG
  encoding level in E. coli by the synthetases tested: comparable levels to para-methyl tetra-fluoro Phe
PheX-D6 [2]
  fidelity (encoding): 98.2%
PheX-D6 [3]
  encoding fidelity: 98.7%
PheX-B5 [4]
  encoding fidelity: 97.9%

## N[C@@H](Cc1c(F)ccc(F)c1F)C(=O)O [2,3,6-fluoro Phe, 2,3,6 tri-fluoro Phenylalanine]
PheX-B5 [1]
  fidelity (encoding): 100%
F1486TAG-hNav 1.5
  expression of full-length channel (western blot): dependent on addition of 2,3,6F Phe
PheX-D6 [2]
  fidelity (encoding): 98.5%
PheX-D6 [3]
  encoding fidelity: 96.7%
F508TAG-CFTR
  expression of full-length channel (western blot): dependent on addition of 2,3,6F Phe
PheX-B5 [4]
  encoding fidelity: 88.1%

## N[C@@H](Cc1cc(F)ccc1F)C(=O)O [2,5-fluoro phenylalanine, 2,5-difluoro-Phe]
PheX-B5 [1]
  fidelity (encoding): 91.3%
PheX-D6 [2]
  fidelity (encoding): 95.6%

## N[C@@H](Cc1c(F)cccc1F)C(=O)O [2,6-fluoro Phe, 2,6 di-fluoro Phenylalanine]
PheX-B5 [1]
  fidelity (encoding): 100%
PheX-D6 [2]
  fidelity (encoding): 97.6%
PheX-D6 [3]
  encoding fidelity: 95.0%
PheX-B5 [4]
  encoding fidelity: 81.8%

## N[C@@H](Cc1ccccc1F)C(=O)O [2-fluoro Phe, 2-mono fluoro Phenylalanine]
PheX-B5 [1]; HEKT cells, sfGFP-N150TAG with PheX-B5, result in words
  site-specificity of encoding (ESI-MS): widespread encoding of 2-mono fluoro Phe at Phe-codons
sfGFP-N150TAG; E. coli, D6 synthetase
  expression in the screen: low expression in the screen
PheX-B5 [4]
  encoding fidelity: 95.6%

## N[C@@H](Cc1c(F)c(F)c(F)c(F)c1F)C(=O)O [Penta-fluoro Phe, 2,3,4,5,6 penta-fluoro Phenylalanine]
PheX-B5 [1]
  fidelity (encoding): 96.2%
sfGFP-N150TAG
  encoding level in E. coli by the synthetases tested: comparable levels to para-methyl tetra-fluoro Phe
PheX-D6 [2]
  fidelity (encoding): 97.5%
PheX-D6 [3]
  encoding fidelity: 98.2%
sfGFP_N150TAG
  useable ncAA concentration (dose-response): useable at sub-millimolar concentrations
PheX-B5 [4]
  encoding fidelity: 97.5%
